Tests used:
COX-2 [1] = biological target: T1, COX-2 (Mus musculus, UniProt Q05769); experiment: COX-2 specific activity in cell-free extracts of LPS-stimulated RAW 264.7 cells (PGE2 by RIA); format: biochemical, murine
T1 construct: using total unfractionated cell extracts; endogenous in cells; host or cells: RAW 264.7 cells, LPS-induced; cell-free extract
T1 sequence (Q05769 18-604): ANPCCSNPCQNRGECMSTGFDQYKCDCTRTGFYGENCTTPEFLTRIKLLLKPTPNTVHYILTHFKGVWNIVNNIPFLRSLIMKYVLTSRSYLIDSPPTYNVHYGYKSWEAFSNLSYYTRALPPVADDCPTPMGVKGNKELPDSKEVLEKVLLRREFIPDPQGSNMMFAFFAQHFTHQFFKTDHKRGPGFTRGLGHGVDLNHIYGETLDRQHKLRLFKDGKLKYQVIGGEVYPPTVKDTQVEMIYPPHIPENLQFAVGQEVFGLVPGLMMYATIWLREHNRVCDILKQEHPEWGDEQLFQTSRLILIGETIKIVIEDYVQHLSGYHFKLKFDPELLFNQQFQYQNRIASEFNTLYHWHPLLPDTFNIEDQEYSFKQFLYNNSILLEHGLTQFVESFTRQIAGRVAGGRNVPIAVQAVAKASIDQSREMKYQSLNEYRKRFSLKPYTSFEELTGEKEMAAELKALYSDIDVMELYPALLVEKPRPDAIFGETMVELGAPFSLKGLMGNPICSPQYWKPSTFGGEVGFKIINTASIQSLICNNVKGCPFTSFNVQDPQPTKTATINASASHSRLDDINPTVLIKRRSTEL
Procedure: Raw 264.7 cells were stimulated with LPS and cell-free extracts were prepared as follows. RAW 264.7 cells were induced with LPS (100 ng/ml) in the presence or absence of tetracyclines or hydrocortisone for 14-20 hours. Following induction, the cells were pelleted at 4° C. and resuspended in Tris buffer: 10 mM, pH 7.4 containing 10 μg/ml each of chymostatin, antipain, leupeptin and pepstatin, 1 mM DDT and 1 mM PMSF. Cells were lysed in a Polytron PA 1200 homogenizer (Kinematica AG, Switzerland) with the cocktail of protease inhibitors after 3 cycles of rapid freeze-thawing. The lysate was centrifuged at 18,000 at 4° C. in an eppendorf centrifuge, and the resulting supernatant was used as cell-free extracts. The protein was measured by BCA assay reagent (Pierce, Rockford, Ill.) using BSA as standard. […] The specific enzyme activity was defined as ng of PGE2 released/mg protein/37° C. for 20 minutes.
RAW 264.7 cells were stimulated with 1 μg/ml of LPS for 16 hours and cell-free extracts were prepared as described above. The extracts were incubated with different modulators for 20 minutes at 37° C. before adding the substrate to initiate the enzyme reaction, which was terminated after 30 minutes by heat inactivation. The data represent one of the two experiments, the PGE2 analysis from each sample was done in triplicates n=3. The p value is a comparison between control and experimentals.

RAW 264.7 cells [2] = experiment: PGE2 production/accumulation in LPS-stimulated RAW 264.7 cells; format: cell-based, murine; details: for inhibition at 10 µg/mL: Mus musculus, RAW264.7, 16 h, read-out: PGE2 % Inhibition or (Increase)
Procedure: (§1) Murine macrophages (RAW 263.7 cells) which were grown in Dulbecco's modified eagle medium (DMEM) containing 10% fetal bovine serum, 2 mM glutamine, 50 U/ml penicillin and 50 μg/ml streptomycin, were stimulated with 100 ng/ml LPS to induce both NOS and COX-2 at 16 hr. […] The data presented in FIG. 1 represents mean±SD as examined by T test were n=3.
(§2) The effects of CMTs 1, 2, 3, 5 and 8 on PGE2 and NO accumulation in RAW 264.7 cells were further evaluated as described above for CMT-3. […]

RAW 264.7 cells [3] = experiment: Nitrite (NO) production/accumulation in LPS-stimulated RAW 264.7 cells; format: cell-based, murine; details: for inhibition at 10 µg/mL: Mus musculus, RAW264.7, 16 h
Procedure: as §1, §2

OA-affected cartilage [4] = experiment: Spontaneous PGE2 release by OA-affected cartilage (ex vivo organ culture); format: cell-based, human; details: Table 2; 5 μg/ml
Procedure: (§3) Human osteoarthritis affected cartilage spontaneously release nitric oxide (NO) and PGE2 in the medium as previously reported (Amin et al, 1995a; 1997a). The OA-organ cultures were set up as described (Amin et al, 1995a; 1997a). Briefly, total knee articular cartilage from tibial plateau and femoral condyle were harvested from OA-affected patients. The cartilage was mixed and cut into 3-mm discs and 4-6 discs were placed in triplicate or quadruplicate, in a 24-well plate in 2.0 ml of Ham's F-12 medium supplemented with 0.2% endotoxin free human albumin, 10 mM Hepes pH 7.4 and antibiotics in the presence of various modulators, as previously described (Amin et al, 1995a; 1997a). CMT-8 was used at pharmacologically relevant concentrations in DMSO (<0.01% final concentration) as carrier. An equivalent amount of DMSO was also added in the control cultures.
(§4) The p value between control and CMT-8 treated values for PGE2≤0.1 (insignificant) whereas the p values between NMMA treated cartilage and CMT-8 treated cartilage was ≤0.001 (significant). The data are represented as mean±SD as examined by T test when n=3. Data represent±SD value as determined by Student's t test n=4. The P values described are compared with control unstimulated OA-cartilage. The data represents one of the two similar experiments. P values for PGE2 and Nitrite=^a≤0.5; ^b≤0.1; ^c≤0.05; ^d≤0.01.

OA-affected cartilage [5] = experiment: Spontaneous nitrite/nitric oxide release by OA-affected cartilage (ex vivo organ culture); format: cell-based, human; details: Table 2; 5 μg/ml
Procedure: as §3, §4

TNFα = TNFα release in the medium by HEK 293 cells permanently transfected with human proTNFα (ELISA); format: cell-based; details: words; for Effect on spontaneous TNFα release: FIG. 8, 16 hours
Procedure: HEK 293 cells were transfected with the proTNFα cDNA (wild) to prepare a stable cell line. […] A mutant form of proTNFα cDNA which could not be cleaved by the endogenous TNFα convertase (TACE) to release soluble TNFα was also transfected in separate human HEK 293 cells. The soluble TNFα was estimated by ELISA from the wild type and mutant transfected cells from the medium (FIG. 6).
HEK 293 cells were grown as previously described by American Type Culture Collection (ATCC). […] The HEK 293 cells were incubated with CMT-3 to examine the effects of CMT-3 on TNFα release in the medium.
HEK 293 cells were grown under the conditions previously described by ATCC. Various compounds, including CMT-3 and doxycycline/minocyclines were incubated with proTNFα transfected HEK 293 cells releasing TNFα in the medium at 16 hours. […] Soluble TNFα was estimated by ELISA from the medium.

COX-2 [6] = experiment: Expression/modification (size) of COX-2 in LPS-stimulated murine macrophages, Western blot; format: cell-based; details: LPS 100 ng/ml, words
Procedure: (§5) RAW 263.7 cells were grown as previously described (Amin et al, 1995b). Murine macrophages stimulated with 100 ng/ml LPS were incubated with CMT-3 or tunicamycin (a glycosylation inhibitor). […] Nitrite and PGE2 were estimated as previously described (Amin et al, 1995b). It is quite possible that CMT-3 may inhibit COX-2 and PGE2 production by post translational modification of COX-2 which may be similar to tunicamycin inhibition. The data represents the mean±SD evaluated by T test (n=3).
Murine macrophage cells were cultivated as previously described (Amin et al, 1995b). […] cells were stimulated with 100 ng/ml of LPS in the presence of CMT-3, CMT-5 and glycosylation inhibitor, tunicamycin. The cells were grown for 16 hr and harvested. The cell free extracts were prepared as previously described (Amin et al, 1995b). In FIG. 4A, 50 μg of protein was loaded in each well and run on SDS-PAGE gels and blotted onto Western blots using a specific anti COX-2 antibody as previously described (Amin et al, 1997a). The positive control is a standard COX-2. […] The size is approximately 2000 D smaller (CMT-3 form) than the native COX-2 shown as a standard. […] These experiments indicate that CMT-3 induces modification of the COX-2 protein. The SDS PAGE analysis and Western blotting of COX-2 was carried out as described above.

NOS = NOS expression in LPS-stimulated murine macrophages; format: cell-based; details: FIG. 2; LPS 100 ng/ml; words
Procedure: as §5

[7] = Experiment II, LPS 100 ng/ml, compound 10 μg/ml, 16 hours
[8] = Experiment I, LPS 100 ng/ml, compound 10 μg/ml, 16 hours

Question: Which results are given for `CC(=O)Oc1ccccc1C(=O)O` [Aspirin, aspirin, reference compound]?
Answer: Effect on specific activity of COX-2 (COX-2 [1]; CMT-3 27 μM, CMT-8 27 μM, aspirin 56 μM, indomethacin 28 μM, words): significantly inhibited the specific activity of COX-2; COX-2 Specific Activity (COX-2 [1]; Table 3, cell-free extracts, 10 μg (aspirin amount not given)): 2.1 ± 0.1 PGE2 ng/mg protein

Question: How did the PGE2 accumulation (RAW 264.7 cells [2]; 16 h, 10 ug/mL) turn out when `C[C@@]1(O)c2cccc(O)c2C(O)=C2C(=O)[C@]3(O)C(O)=C(C(N)=O)C(=O)C[C@@H]3C[C@@H]21` [CMT-1, 4-dedimethylaminotetracycline] was run?
Answer: 31.5 ± 2.5 ng/mL

Question: And the PGE2 accumulation (RAW 264.7 cells [2]; [7])?
Answer: 30.2 ± 8.0 ng/mL

Question: What about the Nitrite (RAW 264.7 cells [3]; [8]) of the same compound?
Answer: 50.8 µM

Question: And the Nitrite (RAW 264.7 cells [3]; [7])?
Answer: 20.3 µM

Question: And the PGE2 (OA-affected cartilage [4])?
Answer: 131.8 ± 37.7 ng/mL

Question: And the Nitrite (OA-affected cartilage [5])?
Answer: 82.0 ± 33.0 µM

Question: What about the “Effect on spontaneous TNFα release” value (TNFα) of the same compound?
Answer: inhibit the spontaneous TNFα release

Question: What about the “Inhibition of TNFα (summary statement)” value (TNFα; HEK 293 cells transfected with proTNFα cDNA, low levels) of the same compound?
Answer: inhibiting TNFα

Question: What does the source list for `CN(C)C1C(=O)C(C#N)=C(O)C2(O)C(=O)C3=C(O)c4c(O)cccc4C(C)(O)C3CC12` (stereo not shown) [CMT-2]?
Answer: PGE2 accumulation (RAW 264.7 cells [2]; [8]): 26.8 ± 8.8 ng/mL; PGE2 accumulation (RAW 264.7 cells [2]; [7]): 22.9 ± 5.0 ng/mL; Nitrite (RAW 264.7 cells [3]; [7]): 23.3 ± 3.5 µM; PGE2 (OA-affected cartilage [4]): 145.2 ± 61.6 ng/mL; Nitrite (OA-affected cartilage [5]): 84.0 ± 20.0 µM; Effect on spontaneous TNFα release (TNFα): not CMT-2 and CMT-5, inhibit the spontaneous TNFα release

Question: Which “Effect on TNFα release in the medium” value (TNFα; FIG. 7) does the source give for `C[C@@H]1C[C@@H]([C@H](O)CC2CC(=O)NC(=O)C2)C(=O)[C@@H](C)C1` [Cycloheximide, cycloheximide, reference compound] here?
Answer: inhibited the release of TNFα in the medium

Question: And the “Effect on spontaneous TNFα release” value (TNFα)?
Answer: inhibit the release of TNFα

Question: `C[C@]12CCC(=O)C=C1CC[C@@H]1[C@@H]2[C@@H](O)C[C@@]2(C)[C@H]1CC[C@]2(O)C(=O)CO` [Hydrocortisone, hydrocortisone, reference compound] was tested. Which PGE2 accumulation (RAW 264.7 cells [2]; 16 h, 10 ug/mL) did it give?
Answer: 12.3 ± 2.6 ng/mL

Question: And the PGE2 accumulation (RAW 264.7 cells [2]; [7])?
Answer: 9.5 ± 0.5 ng/mL

Question: What about the inhibition at 10 µg/mL (RAW 264.7 cells [2]; [8]) of the same compound?
Answer: 52%

Question: And the inhibition at 10 µg/mL (RAW 264.7 cells [2]; [7])?
Answer: 50%

Question: What about the Nitrite (RAW 264.7 cells [3]; 16 h, 10 ug/mL) of the same compound?
Answer: 34.3 µM

Question: What about the Nitrite (RAW 264.7 cells [3]; [7]) of the same compound?
Answer: 12.9 µM

Question: And the inhibition at 10 µg/mL (RAW 264.7 cells [3]; [8])?
Answer: 32%

Question: And the inhibition at 10 µg/mL (RAW 264.7 cells [3]; [7])?
Answer: 40%

Question: tunicamycin [reference compound] was tested. Which “Effect on PGE2 production” value (RAW 264.7 cells [2]; FIG. 2, LPS 100 ng/ml, words) did it give?
Answer: inhibit

Question: And the “Effect on NO production” value (RAW 264.7 cells [3]; FIG. 2, LPS 100 ng/ml, words)?
Answer: inhibit

Question: And the “Effect on COX-2 expression” value (COX-2 [6]; FIG. 2)?
Answer: inhibit

Question: What about the “Effect on size of COX-2” value (COX-2 [6]; FIG. 4A, 16 hr, Western blot) of the same compound?
Answer: much smaller than the native form

Question: And the “Effect on NOS expression” value (NOS)?
Answer: inhibit

Source: patent US6319910A, “Method for inhibiting cyclooxygenase-2 and tumor necrosis factor alpha” (Hospital for Joint Diseases, priority 1998, dated 2001)
